Results: PMC11267380, “USP25 Elevates SHLD2‐Mediated DNA Double‐Strand Break Repair and Regulates Chemoresponse in Cancer” (Advanced Science, 2024)

Test system: USP25 and MDC1 BRCT-domain / FHA-domain
Experiment: GST pull-down of USP25 with MDC1 deletions after 5-Fu
Assay type: cell-based, human
Details: 5-Fu (20 uM), HEK293T lysates
Method: Figure 4 Regulation of the DDR signaling by USP25. a) HEK293T cells were left untreated or treated with IR (10 Gy) or 5‐Fu (20 uM). USP25 was immunoprecipitated and immunoblotted with phospho‐SQ/TQ (p‐SQ/TQ). b) HEK293T cells were pretreated with Ku55933 (25 µM) for 2 h followed by treatment with IR(10 Gy). After 1 h, USP25 was immunoprecipitated, left untreated, or treated with phosphatase and immunoblotted with p‐SQ/TQ. c) HEK293T cells transfected with USP25^WT and indicated constructs were left treated with IR(10 Gy). USP25 was immunoprecipitated and immunoblotted with p‐SQ/TQ. d) USP25 knockdowm U2OS cells rescued with USP25WT or USP25T523A were treated with IR (2 Gy), and co‐localization USP25 with γH2AX was detected by immunofluorescence. n>80 in each group. e) HEK293T cells were left untreated or treated with 5‐Fu (20 uM). […] The interaction USP25 and MDC1 deletions was detected. g) HEK293T cells transfected with USP25^WT or USP25^T523A were treated with IR, and cell lysates were incubated with GST or GST‐MDC1‐BRCT in vitro. The interaction USP25 and MDC1‐BRCT was detected. h) Non‐phosphorylated or phosphorylated Thr523 peptide was conjugated to beads and incubated with purified GST‐MDC1‐BRCT domain in buffer. […]

O=c1[nH]cc(F)c(=O)[nH]1 [5‐Fu, 5‐fluorouracil]
interaction of MDC1 domains with USP25 after treatment: MDC1 BRCT‐domain but not FHA‐domain interacted with USP25
